Laboratory results published in ChEMBL document CHEMBL1127391, “Generally applicable, convenient solid-phase synthesis and receptor affinities of octreotide analogs” (J Med Chem, 1994).

Target: Somatostatin receptor
Assay: Dissociation constant binding to somatostatin receptor of At-20 mouse pituitary carcinoma cell membranes
Details: pituitary gland cell

Compound: C[C@H](O)[C@H](CO)NC(=O)[C@H](CS)NC(=O)[C@@H](NC(=O)[C@H](CCCCN)NC(=O)[C@@H](Cc1c[nH]c2ccccc12)NC(=O)[C@H](Cc1ccccc1)NC(=O)[C@H](CS)NC(=O)[C@@H](Cc1ccccc1)NC(=O)CN(CCN(CCN(CC(=O)O)CC(=O)O)CC(=O)O)CC(=O)O)[C@@H](C)O
- Kd: 5.57 nM
